Measurements: US8420830B2, “Macrocyclic factor VIIa inhibitors useful as anticoagulants” (Bristol-Myers Squibb Company, priority 2006, dated 2013)
“And” between values parts separate entries of the source, which are not always exact repeats. Equal entries are not always repeated. Structures can show the parent of a compound that is named as a salt.

Target: T1, Factor VIIa (Homo sapiens, UniProt P08709)
T1 construct: purchased Haematologic Technologies (purified) or Novo Nordisk (recombinant)
Experiment: Factor VIIa assay
Assay type: biochemical
Conditions: measured in the Factor VIIa assay described above; several values in a cell are repeat determinations

T1 sequence (P08709 213-466 limits assumed): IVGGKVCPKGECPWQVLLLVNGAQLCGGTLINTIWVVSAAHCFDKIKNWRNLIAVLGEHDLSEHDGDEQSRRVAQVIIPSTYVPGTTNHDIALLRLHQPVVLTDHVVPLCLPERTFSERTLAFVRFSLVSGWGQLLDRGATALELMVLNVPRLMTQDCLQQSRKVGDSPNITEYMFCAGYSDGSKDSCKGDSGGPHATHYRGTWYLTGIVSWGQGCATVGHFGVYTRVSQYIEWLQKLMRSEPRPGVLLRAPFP
T1 sequence (P08709 61-212 limits assumed): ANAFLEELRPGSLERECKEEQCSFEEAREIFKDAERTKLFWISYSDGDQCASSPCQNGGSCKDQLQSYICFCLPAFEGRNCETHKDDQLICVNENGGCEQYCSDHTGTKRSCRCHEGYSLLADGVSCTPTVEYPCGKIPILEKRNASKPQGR
T1 sequence (P13726 33-251 partner limits assumed): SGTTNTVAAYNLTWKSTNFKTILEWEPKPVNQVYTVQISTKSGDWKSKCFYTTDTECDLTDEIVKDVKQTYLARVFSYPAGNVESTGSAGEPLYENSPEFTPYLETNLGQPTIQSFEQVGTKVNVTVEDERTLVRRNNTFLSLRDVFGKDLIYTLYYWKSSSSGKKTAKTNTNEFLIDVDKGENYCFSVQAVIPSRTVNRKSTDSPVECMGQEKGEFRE

Ki	Compound
0.69 nM and 0.86 nM and 0.87 nM and 0.96 nM and 1.14 nM and 1.22 nM	Cc1cc2ccc1[C@@H](C)COC(=O)Nc1ccc(S(=O)(=O)C3CC3)c(c1)CN(C)C(=O)[C@@H]2Nc1ccc2nc[nH]c(=O)c2c1 [Example 76, (2R,15R)-7-Cyclopropanesulfonyl-4,15,17-trimethyl-2-(4-oxo-3,4-dihydro-quinazolin-6-ylamino)-13-oxa-4,11-diaza-tricyclo[14.2.2.1^6,10]henicosa-1(19),6,8,10(21),16(20),17-hexaene-3,12-dione trifluoroacetate]
1060 nM	COCCN1Cc2cccc(c2)NC(=O)OC[C@H](C)c2ccc(cc2C)[C@@H](Nc2ccc3cc[nH]c(=O)c3c2)C1=O [Example 152, (2R,15R)-4-(2-Methoxy-ethyl)-15,17-dimethyl-2-(1-oxo-1,2-dihydro-isoquinolin-7-ylamino)-13-oxa-4,11-diaza-tricyclo[14.2.2.1^6,10]henicosa-1(19),6,8,10(21),16(20),17-hexaene-3,12-dione]
29.4 nM and 34 nM	CC[C@H]1COC(=O)Nc2ccc(S(=O)(=O)C3CC3)c(c2)CN(C)C(=O)[C@H](Nc2ccc3nc[nH]c(=O)c3c2)c2ccc1cc2 [Example 65, (2R,15R)-7-Cyclopropanesulfonyl-15-ethyl-4-methyl-2-(4-oxo-3,4-dihydro-quinazolin-6-ylamino)-13-oxa-4,11-diaza-tricyclo[14.2.2.1^6,10]henicosa-1(19),6,8,10(21),16(20),17-hexaene-3,12-dione]
27.1 nM and 97.5 nM	Cc1cc2ccc1[C@@H](C)COC(=O)Nc1cccc(c1)[C@@H](C)NC(=O)[C@@H]2Nc1ccc2cc[nH]c(=O)c2c1 [Example 158]
0.88 nM	Cc1cc2ccc1[C@@H](C)COC(=O)Nc1ccc(S(=O)(=O)C3CC3)c(c1)CN(C)C(=O)[C@@H]2Nc1ccc2cc[nH]c(=O)c2c1 [Example 79, (2R,15R)-7-Cyclopropanesulfonyl-4,15,17-trimethyl-2-(1-oxo-1,2-dihydro-isoquinolin-7-ylamino)-13-oxa-4,1-diaza-tricyclo[14.2.2.1^6,10]henicosa-1(19),6,8,10(21),16(20),17-hexaene-3,12-dione]
1000 nM	CCOC(=O)CCN1Cc2cccc(c2)NC(=O)OC[C@H](C)c2ccc(cc2C)[C@@H](Nc2ccc3cc[nH]c(=O)c3c2)C1=O [Example 154, 3-[(2R,15R)-15,17-Dimethyl-3,12-dioxo-2-(1-oxo-1,2-dihydro-isoquinolin-7-ylamino)-13-oxa-4,11-diaza-tricyclo[14.2.2.1^6,10]henicosa-1(19),6,8,10(21),16(20),17-hexaen-4-yl]-propionic acid ethyl ester]
1300 nM	Cc1cc2cc(C)c1CCOC(=O)Nc1cccc(c1)CN(CCC(=O)O)C(=O)C2Nc1ccc2cc[nH]c(=O)c2c1 (stereo not shown) [Example 145, 3-[17,20-Dimethyl-3,12-dioxo-2-(1-oxo-1,2-dihydro-isoquinolin-7-ylamino)-13-oxa-4,11-diaza-tricyclo[14.2.2.1^6,10]henicosa-1(19),6,8,10(21),16(20),17-hexaen-4-yl]-propionic acid]
1520 nM	Cc1cc2cc(C)c1CCOC(=O)Nc1cccc(c1)CN(C)C(=O)C2Nc1ccc2cc[nH]c(=O)c2c1 (stereo not shown) [Example 14, 4,17,20-Trimethyl-2-(1-oxo-1,2-dihydro-isoquinolin-7-ylamino)-13-oxa-4,11-diaza-tricyclo[14.2.2.1^6,10]henicosa-1(19),6,8,10(21),16(20),17-hexaene-3,12-dione]
0.61 nM	COc1cc2ccc1[C@@H](C)COC(=O)Nc1ccc(S(=O)(=O)C3CC3)c(c1)CN(C)C(=O)[C@@H]2Nc1ccc2cc[nH]c(=O)c2c1 [Example 82, (2R,15R)-7-Cyclopropanesulfonyl-17-methoxy-4,15-dimethyl-2-(1-oxo-1,2-dihydro-isoquinolin-7-ylamino)-13-oxa-4,11-diaza-tricyclo[14.2.2.1^6,10]henicosa-1(19),6,8,10(21),16(20),17-hexaene-3,12-dione]
3100 nM	CCOC(=O)CCN1Cc2cccc(c2)NC(=O)OCCc2c(C)cc(cc2C)[C@@H](Nc2ccc3cc[nH]c(=O)c3c2)C1=O [Example 144, 3-[17,20-Dimethyl-3,12-dioxo-2-(1-oxo-1,2-dihydro-isoquinolin-7-ylamino)-13-oxa-4,11-diaza-tricyclo[14.2.2.1^6,10]henicosa-1(19),6,8,10(21),16(20),17-hexaen-4-yl]-propionic acid ethyl ester]
23.6 nM	CCN1CC(=O)Nc2ccc(S(=O)(=O)C(C)C)c(c2)CNC(=O)C(Nc2ccc3nc[nH]c(=O)c3c2)c2cc(C)c(c(C)c2)C1 (stereo not shown) [Example 121, 14-Ethyl-17,20-dimethyl-2-(4-oxo-3,4-dihydro-quinazolin-6-ylamino)-7-(propane-2-sulfonyl)-4,11,14-triaza-tricyclo[14.2.2.1^6,10]henicosa-1(19),6,8,10(21),16(20),17-hexaene-3,12-dione bistrifluoroacetate]
1460 nM	COC(=O)NCCN1Cc2cccc(c2)NC(=O)OC[C@H](C)c2ccc(cc2C)[C@@H](Nc2ccc3cc[nH]c(=O)c3c2)C1=O [Example 153, {2-[(2R,15R)-15,17-Dimethyl-3,12-dioxo-2-(1-oxo-1,2-dihydro-isoquinolin-7-ylamino)-13-oxa-4,11-diaza-tricyclo[14.2.2.1^6,10]henicosa-1(19),6,8,10(21),16(20),17-hexaen-4-yl]-ethyl}-carbamic acid methyl ester]
1120 nM	Cc1cc2ccc1[C@@H](C)COC(=O)Nc1cccc(c1)CN(CCO)C(=O)[C@@H]2Nc1ccc2cc[nH]c(=O)c2c1 [Example 151, (2R,15R)-4-(2-Hydroxy-ethyl)-15,17-dimethyl-2-(1-oxo-1,2-dihydro-isoquinolin-7-ylamino)-13-oxa-4,11-diaza-tricyclo[14.2.2.1^6,10]henicosa-1(19),6,8,10(21),16(20),17-hexaene-3,12-dione]
1.57 nM	CCO[C@H]1COC(=O)Nc2ccc(S(=O)(=O)C3CC3)c(c2)CN(C)C(=O)[C@H](Nc2ccc3cc[nH]c(=O)c3c2)c2ccc1c(C)c2 (single isomer, unassigned) [Example 40]
24 nM and 40.4 nM	COc1cc2cc(OC)c1CCOC(=O)Nc1cccc(c1)[C@@H](CC(=O)O)NC(=O)[C@@H]2Nc1ccc2nc[nH]c(=O)c2c1 [Example 13, [(2R,5R)-17,20-Dimethoxy-3,12-dioxo-2-(4-oxo-3,4-dihydro-quinazolin-6-ylamino)-13-oxa-4,11-diaza-tricyclo[14.2.2.1^6,10]henicosa-1(19),6,8,10(21),16(20),17-hexaen-5-yl]-acetic acid]
1.35 nM and 1.38 nM	Cc1cc2ccc1[C@@H](C)COC(=O)Nc1ccc(S(=O)(=O)C3CC3)c(c1)CN(C)C(=O)[C@@H]2Nc1cc2c(=O)[nH]cnc2cc1F [Example 78, (2R,15R)-7-Cyclopropanesulfonyl-2-(7-fluoro-4-oxo-3,4-dihydro-quinazolin-6-ylamino)-4,15,17-trimethyl-13-oxa-4,1-diaza-tricyclo[14.2.2.1^6,10]henicosa-1(19),6,8,10(21),16(20),17-hexaene-3,12-dione]
1.44 nM	C[C@H]1COC(=O)Nc2ccc(S(=O)(=O)C3CC3)c(c2)CN(C)C(=O)[C@H](Nc2ccc3cc[nH]c(=O)c3c2)c2ccc1c(Cl)c2 [Example 84, (2R,15R)-17-Chloro-7-cyclopropanesulfonyl-4,15-dimethyl-2-(1-oxo-1,2-dihydro-isoquinolin-7-ylamino)-13-oxa-4,11-diaza-tricycle [14.2.2.1^6,10]henicosa-1(19),6,8,10(21),16(20),17-hexaene-3,12-dione]
28.1 nM	CCC(=O)N1CC(=O)Nc2ccc(S(=O)(=O)C(C)C)c(c2)CNC(=O)C(Nc2ccc3nc[nH]c(=O)c3c2)c2cc(C)c(c(C)c2)C1 (stereo not shown) [Example 118, 17,20-Dimethyl-2-(4-oxo-3,4-dihydro-quinazolin-6-ylamino)-7-(propane-2-sulfonyl)-14-propionyl-4,11,14-triaza-tricyclo[14.2.2.1^6,10]henicosa-1(19),6,8,10(21),16(20),17-hexaene-3,12-dione trifluoroacetate]
33.2 nM	Cc1cc2cc(C)c1CN(C(C)C)CC(=O)Nc1ccc(S(=O)(=O)C(C)C)c(c1)CNC(=O)C2Nc1ccc2nc[nH]c(=O)c2c1 (stereo not shown) [Example 124, 14-Isopropyl-17,20-dimethyl-2-(4-oxo-3,4-dihydro-quinazolin-6-ylamino)-7-(propane-2-sulfonyl)-4,11,114-triaza-tricyclo[14.2.2.1^6,10]henicosa-1(19),6,8,10(21),06(20),17-hexaene-3,12-dione bistrifluoroacetate]
0.88 nM	Cc1cc2ccc1[C@@H](C)COC(=O)Nc1ccc(N3C(=O)C4CCC3CC4)c(c1)CN(C)C(=O)[C@@H]2Nc1ccc2cc[nH]c(=O)c2c1 [Example 168, (2R,15R)-4,15,17-Trimethyl-7-(3-oxo-2-aza-bicyclo[2.2.2]oct-2-yl)-2-(1-oxo-1,2-dihydro-isoquinolin-7-ylamino)-13-oxa-4,11-diaza-tricyclo[14.2.2.1^6,10]henicosa-1(19),6,8,10(21),16(20),17-hexaene-3,12-dione]
2530 nM	Cc1cc2ccc1[C@@H](C)COC(=O)Nc1cccc(c1)CN(CCNC(=O)OC(C)(C)C)C(=O)[C@@H]2Nc1ccc2cc[nH]c(=O)c2c1 [Example 148, {2-[(2R,15R)-15,17-Dimethyl-3,12-dioxo-2-(1-oxo-1,2-dihydro-isoquinolin-7-ylamino)-13-oxa-4,11-diaza-tricyclo[14.2.2.1^6,10]henicosa-1(19),6,8,10(21),16(20),17-hexaen-4-yl]-ethyl}-carbamic acid tert-butyl ester]
26.6 nM	CC(=O)N1CC(=O)Nc2ccc(S(=O)(=O)C(C)C)c(c2)CNC(=O)C(Nc2ccc3cc[nH]c(=O)c3c2)c2cc(C)c(c(C)c2)C1 (stereo not shown) [Example 128, 14-Acetyl-17,20-dimethyl-2-(1-oxo-1,2-dihydro-isoquinolin-7-ylamino)-7-(propane-2-sulfonyl)-4,11,14-triaza-tricyclo[14.2.2.1^6,10]henicosa-1(19),6,8,10(21),16(20),17-hexaene-3,12-dione trifluoroacetate]
